Data from article PMC7995890, “Inhibition of Phosphodiesterase 5 Promotes the Aromatase-Mediated Estrogen Biosynthesis in Osteoblastic Cells by Activation of cGMP/PKG/SHP2 Pathway” (Frontiers in Endocrinology, 2021).

Target: PDE5A (Homo sapiens, UniProt O76074)
Assay: PDE-Glo assay with purified recombinant human PDE5A; supported by cellular thermal shift assay in HEK293T lysate
Type: biochemical

## COc1ccc(-c2oc3c(CC=C(C)C)c(OCc4ccccc4)cc(O)c3c(=O)c2O)cc1 [compound 14, 7-O-benzylicaritin]
  IC50: 9.91 µM
